Measured values published in paper PMC10353189, “Hybridization of the effective pharmacophores for treatment of epilepsy: design, synthesis, in vivo anticonvulsant activity, and in silico studies of phenoxyphenyl-1,3,4-oxadiazole-thio-N-phenylacetamid hybrids” (BMC Chemistry, 2023).
Read-outs that look alike come from different tables or passages of the source.

Assays:
[1] = tested on: MES-induced seizure in mice; assay: Maximal electroshock (MES) induced seizure test; assay type: in vivo, Male NMRI mice; conditions: for responders at 1 mg/kg / responders at 2 mg/kg / responders at 5 mg/kg / responders at 10 mg/kg / responders at 20 mg/kg / responders at 50 mg/kg / responders at 100 mg/kg: Mus musculus; for responders at 1 mg/kg: dose 1 mg/kg ip; for responders at 2 mg/kg / MES Number of animals protected / Number of tested animals: dose 2 mg/kg ip; for responders at 5 mg/kg: dose 5 mg/kg ip; for responders at 10 mg/kg: dose 10 mg/kg ip; for responders at 20 mg/kg: dose 20 mg/kg ip; for responders at 50 mg/kg: dose 50 mg/kg ip; for responders at 100 mg/kg: dose 100 mg/kg ip; for MES Number of animals protected / Number of tested animals: with flumazenil 1 mg/kg ip 15 min before seizure induction
[2] = tested on: PTZ-induced lethal convulsion in mice; assay: Pentylenetetrazole (PTZ) induced seizure test; assay type: in vivo, Male NMRI mice; conditions: Mus musculus; for responders at 2 mg/kg: dose 2 mg/kg ip; for responders at 5 mg/kg: dose 5 mg/kg ip; for responders at 10 mg/kg: dose 10 mg/kg ip; for responders at 50 mg/kg: dose 50 mg/kg ip; for responders at 1 mg/kg: dose 1 mg/kg ip
[3] = MES 50 mA, 60 Hz, 0.2 s, read-out: MES Number of animals protected / Number of tested animals (converted)
[4] = 30 min before PTZ 100 mg/kg ip, read-out: PTZ Number of animals protected / Number of tested animals
[5] = PTZ 100 mg/kg ip, read-out: PTZ %Protection
[6] = 30 min before PTZ 100 mg/kg ip, read-out: PTZ Number of animals protected / Number of tested animals (converted)
[7] = MES 50 mA, 60 Hz, 0.2 s, read-out: MES Number of animals protected / Number of tested animals

SMILES	responders at 1 mg/kg [1, 3] [%]	responders at 1 mg/kg ([1]; read-out: MES %Protection) [%]	responders at 2 mg/kg [1, 3] [%]	responders at 2 mg/kg ([1]; read-out: MES %Protection) [%]	responders at 5 mg/kg [1, 3] [%]	responders at 5 mg/kg ([1]; read-out: MES %Protection) [%]	responders at 10 mg/kg [1, 3] [%]	responders at 10 mg/kg ([1]; read-out: MES %Protection) [%]	responders at 5 mg/kg [2, 6] [%]	responders at 5 mg/kg [2, 5] [%]	responders at 20 mg/kg [1, 3] [%]	responders at 20 mg/kg ([1]; read-out: MES %Protection) [%]	also measured
O=C(CSc1nnc(-c2ccccc2Oc2ccccc2)o1)Nc1ccc([N+](=O)[O-])cc1 [Compound 8L, N-(4-nitrophenyl)-2-((5-(2-phenoxyphenyl)-1,3,4-oxadiazol-2-yl)thio)acetamide]	25	25	25	25	75	75	50	50	25	25	–	–	responders at 2 mg/kg [2, 4]: 0%; responders at 2 mg/kg [2, 5]: 0%; responders at 10 mg/kg [2, 6]: 0%; responders at 10 mg/kg [2, 5]: 0%
O=C(CSc1nnc(-c2ccccc2Oc2ccccc2)o1)Nc1ccccc1 [Compound 8a, 2-((5-(2-phenoxyphenyl)-1,3,4-oxadiazol-2-yl)thio)-N -phenylacetamide]	62.5	62.5	50	50	50	50	50	50	0	0	50	50	–
Cc1ccc(NC(=O)CSc2nnc(-c3ccccc3Oc3ccccc3)o2)cc1 [Compound 8b, 2-((5-(2-phenoxyphenyl)-1,3,4-oxadiazol-2-yl)thio)-N -(p-tolyl)acetamide]	0	0	–	–	–	–	25	25	–	–	–	–	responders at 50 mg/kg [1, 7]: 40%; responders at 50 mg/kg ([1]; read-out: MES %Protection): 40%; responders at 100 mg/kg [1, 3]: 75%; responders at 100 mg/kg ([1]; read-out: MES %Protection): 75%; responders at 50 mg/kg [2, 4]: 0%; responders at 50 mg/kg [2, 5]: 0%
COc1ccc(NC(=O)CSc2nnc(-c3ccccc3Oc3ccccc3)o2)cc1 [Compound 8c, N-(4-methoxyphenyl)-2-((5-(2-phenoxyphenyl)-1,3,4-oxadiazol-2-yl)thio)acetamide]	0	0	25	25	25	25	25	25	–	–	75	75	responders at 2 mg/kg [2, 4]: 0%; responders at 2 mg/kg [2, 5]: 0%
O=C(CSc1nnc(-c2ccccc2Oc2ccccc2)o1)Nc1ccc(F)cc1 [Compound 8d, N-(4-fluorophenyl)-2-((5-(2-phenoxyphenyl)-1,3,4-oxadiazol-2-yl)thio)acetamide]	25	25	50	50	50	50	50	50	0	0	25	25	–
O=C(CSc1nnc(-c2ccccc2Oc2ccccc2)o1)Nc1ccc(F)cc1F [Compound 8e, N-(2,4-difluorophenyl)-2-((5-(2-phenoxyphenyl)-1,3,4-oxadiazol-2-yl)thio)acetamide]	25	25	–	–	25	25	25	25	0	0	–	–	–
O=C(CSc1nnc(-c2ccccc2Oc2ccccc2)o1)Nc1ccccc1Cl [Compound 8f, N-(2-chlorophenyl)-2-((5-(2-phenoxyphenyl)-1,3,4-oxadiazol-2-yl)thio)acetamide]	–	–	–	–	0	0	25	25	0	0	75	75	–
O=C(CSc1nnc(-c2ccccc2Oc2ccccc2)o1)Nc1cccc(Cl)c1 [Compound 8g, N-(3-chlorophenyl)-2-((5-(2-phenoxyphenyl)-1,3,4-oxadiazol-2-yl)thio)acetamide]	62.5	62.5	25	25	50	50	75	75	0	0	62.5	62.5	–
O=C(CSc1nnc(-c2ccccc2Oc2ccccc2)o1)Nc1cc(Cl)cc(Cl)c1 [Compound 8h, N-(3,5-dichlorophenyl)-2-((5-(2-phenoxyphenyl)-1,3,4-oxadiazol-2-yl)thio)acetamide]	0	0	25	25	25	25	25	25	0	0	50	50	–
O=C(CSc1nnc(-c2ccccc2Oc2ccccc2)o1)Nc1cccc(Br)c1 [Compound 8i, N-(3-bromophenyl)-2-((5-(2-phenoxyphenyl)-1,3,4-oxadiazol-2-yl)thio)acetamide]	0	0	–	–	50	50	25	25	0	0	50	50	–
O=C(CSc1nnc(-c2ccccc2Oc2ccccc2)o1)Nc1ccc(Br)cc1 [Compound 8j, N-(4-bromophenyl)-2-((5-(2-phenoxyphenyl)-1,3,4-oxadiazol-2-yl)thio)acetamide]	25	25	–	–	50	50	50	50	0	0	–	–	responders at 10 mg/kg [2, 6]: 25%; responders at 10 mg/kg [2, 5]: 25%
O=C(CSc1nnc(-c2ccccc2Oc2ccccc2)o1)Nc1ccccc1[N+](=O)[O-] [Compound 8k, N-(2-nitrophenyl)-2-((5-(2-phenoxyphenyl)-1,3,4-oxadiazol-2-yl)thio)acetamide]	–	–	75	75	75	75	50	50	–	–	–	–	MES Number of animals protected / Number of tested animals [1]: 0/4; responders at 2 mg/kg [2, 4]: 0%; responders at 2 mg/kg [2, 5]: 0%
Cc1c(NC(=O)CSc2nnc(-c3ccccc3Oc3ccccc3)o2)cccc1[N+](=O)[O-] [Compound 8m, N-(2-methyl-3-nitrophenyl)-2-((5-(2-phenoxyphenyl)-1,3,4-oxadiazol-2-yl)thio)acetamide]	25	25	50	50	–	–	0	0	–	–	–	–	responders at 50 mg/kg [1, 7]: 0%; responders at 50 mg/kg ([1]; read-out: MES %Protection): 0%; responders at 1 mg/kg [2, 4]: 0%; responders at 1 mg/kg [2, 5]: 0%
CN1C(=O)CN=C(c2ccccc2)c2cc(Cl)ccc21 [Diazepam, reference compound]	–	–	–	–	–	–	–	–	–	–	–	–	MES Number of animals protected / Number of tested animals [1]: 0/6
